Converted amounts (≈) assume the structure as drawn. Read-outs that look alike come from different tables or passages of the source.
Assays:
[1] = system: Plasmodium falciparum; assay: In vitro anti-malarial activity against Plasmodium falciparum, IC50 assay / [3H]-hypoxanthine incorporation assay; assay type: cell-based; conditions: Erythrocyte, parasitized red blood cells, 48 hours
Protocol: In Vitro Anti-malarial Activity Against Plasmodium falciparum
IC50 Assay/[^3H]-Hypoxanthine Assay
Plasmodium falciparum strains.
The culture medium comprised RPMI 1640 with 25 mM HEPES, sodium bicarbonate and glutamine (GIBCO™ cat. ref.: 52400), supplemented with 10% of pooled human sera AB (Irvine Scientific, cat. ref.: 5009) and HT supplement (0.15 mM hypoxanthine and 24 μM thymidine), (GIBCO™ cat. ref.: 41065). Human sera were decomplemented 30 min. at 56° C., aliquoted and stored frozen at −20° C. until use in this culture medium.
Red blood cells O+ stock suspensions were prepared from whole blood bags coming from incomplete blood donation, provided by the Spanish Red Cross (<25 days after sampling). This “whole blood” was aliquoted and stored at 4° C.
To prepare red blood cells for the assay, the whole blood was centrifuged and washed 3 times with RPMI without serum. The upper phase, containing white blood cells was removed. The washed red blood cells were kept as a 50% suspension in complete medium. The prepared cells were stored at 4° C. and were employed in the assay at any time up to 4 days after preparation.
Test compounds were dissolved at 2 mg/ml in 100% DMSO on the day of the assay. If necessary, complete dissolution was achieved by gentle heating (the mixture was heated at a temperature <37° C.) and sonication (sonication bath).
For IC50 determinations, 10 serial 2-fold dilutions were prepared in complete medium in the presence of a constant amount of DMSO.
Plasmodium falciparum strains were maintained in complete medium at an hematocrit of 5% in continuous culture using a method adapted from Trager and Jensen (1, 2).
The parasitemia was calculated by counting the percentage of parasitized erythrocytes by optical microscopy. Thin films of blood were made every day from each culture flask, fixed with methanol and stained for 10 min. in Giemsa (Merck, cat ref.: 1.09204) at 10% in buffered water pH 7.2. The glass slides were observed and counted with an optical microscope (Nikon, Eclipse E200) equipped with a 100× immersion oil objective.
The culture was maintained at an hematocrit of 5%, with a daily change of medium and was diluted when parasitemia had reached about 5%.
[^3H] Hypoxanthine incorporation assay was conducted using a method adapted from Desjardins et al. (3). The assays were performed in 96 wells flat bottom microplates.
1. Serial dilutions of the test compounds (50 μl of a 5× solution/well) were deposited in duplicate. Compounds of the invention were tested in this assay. Chloroquine and Atovaquone were used as control compounds for each assay.
3. [^3H]-Hypoxanthine (Amersham Biosciences, cat. ref.: TRK74) was added extemporaneously to the inoculum suspension at a concentration of 1 μCi/ml (equating to […]). 200 μl of the resulting suspension was distributed into each well (other than the control well H12 described below) leading to a final volume of 250 μl per well, at 2% of hematocrit and 0.5% of parasitemia/well.
4. In each plate, 2 columns were reserved for control wells: • Column 11: Positive control wells: PRBCs with 0.2% DMSO—(i) to determine DMSO solvent effect on parasite growth (at a final concentration of 0.2%) and (ii) to compare with cultures treated with test compounds. • Column 12 (comprising wells A12-H12): • A12-D12—Background value wells: Uninfected RBCs—blank control to obtain the background reading from RBCs without parasites. • E12-G12—Solvent effect wells: PRBCs without DMSO—to determine DMSO solvent effect on PRBCs by comparing these wells with column 11 wells. • H12-Non-radioactive well: PRBCs with cold hypoxanthine—(i) to carry out a thin blood film to determine parasitemia value after incubation by microscopy and (ii) to ensure that the parasites have grown properly during the assay. (200 μl of inoculum suspension was prepared as described above (Items 2 and 3) but with non-tritiated hypoxanthine instead of [3H]-hypoxanthine, then added to this well to a final volume of 250 μl). […]

[2] = Compound solubility determination (gross and equilibrium solubility; FaSSIF, FeSSIF, pH 7.4 PBS, pH 1.0 0.1N HCl, pH 4.5 sodium citrate); assay type: physicochemical; conditions: thermodynamic from solid
Protocol: Compound Solubility Determination
An amount of 3 mg solid compound with LC-MS purity ≧95% was required. This amount was split between 3 different glass vials (1.8 ml volume each), placing 1 mg compound into each one.
Organic solvents of HPLC grade were used. Ultra pure water (Milli-Q grade) was used. Buffers were prepared with ultra pure water and filtered using 0.45μ cameo filters. The compositions of each solvent employed in this assay are described below (part III).
2. Determination of Equilibrium Solubility (Assuming Chemical Stability in the Desired Solvent is not a Problem).
For each of the three vial samples prepared as described above, in which the amount of compound was totally dissolved, the following procedure was subsequently carried out: • a) A small amount (approx. 0.1 mg) of additional solid compound was added to the vial to maintain an excess of the compound in the mixture in the form of undissolved solid. • b) The samples were magnetically stirred for 24 hr. If required, additional solid compound (0.1 mg) was added to maintain excess of it and then the samples were stirred again. • c) Then the samples were filtered (Millipore Milex filters nylon 0.2 um) and three aliquots were taken (one from each of the three vials) and analysed by LC-MS. • d) The pH of the final solution in each sample was measured with a pH-meter (WTW pH330i and a pH-electrode Sentix 41).
3. LC-MS Assay for Analytical Quantification
All filtered aliquots were analysed by LC-MS. The analysis was carried out with a Luna 5 μC18 (2) column 4.6×150 mm, using a HP1100 HPLC instrument interfaced with a Waters ZMD-2000 MS spectrometer. The concentration of the final sample as prepared above was calculated from that of a reference calibration curve obtained from serial dilutions of a 2 mM solution of the compound under investigation in DMSO (Aldrich cat. ref.: 27685-5) stock solution.
The analysis of all LC-MS data was performed with MassLynx 3.4 software. Statistical and graphic analysis of data was performed using Microsoft Excel. The concentration (uM) and solubility (ug/ml) for each compound was calculated using the peak areas from the sample and those from the calibration curve.
A) FaSSIF is a solvent which simulates the Fasted State of the Intestinal Fluid. (FaSSIF: Fasted State Simulated Intestinal Fluid).
B) FeSSIF is a solvent which simulates the Fed State of the Intestinal Fluid. (FeSSIF: Fed State Simulated Intestinal Fluid).
C) Solubility at pH 7.4 was determined in phosphate buffered saline (PBS) (Fluka cat. ref: 79383)
D) Solubility at pH 1.0 was determined in 0.1N HCl solution (Scharlau AL0744010C)
E) Solubility at pH 4.5 was determined in sodium citrate 0.5M solution. (Aldrich 25, 127-5)

[3] = 0.1N HCl solution, simulated gastric fluid, pH 1 (HCl), read-out: Solubility at pH 1 (HCl)
[4] = FaSSIF (fasted state simulated intestinal fluid), fassif, read-out: Solubility in FaSSIF
[5] = phosphate buffered saline (PBS), aqueous buffer, pH 7.4 (PBS), read-out: Solubility at pH 7.4 (PBS)
[6] = sodium citrate 0.5M solution, aqueous buffer, pH 4.5 (Na citrate), read-out: Solubility at pH 4.5 (Na citrate)
[7] = FeSSIF (fed state simulated intestinal fluid), fessif, read-out: Solubility in FeSSIF

Row | IC50 [1] | solubility at 24 h [2, 3] | solubility at 24 h [2, 4] | solubility at 24 h [2, 5] | solubility at 24 h [2, 6] | solubility at 24 h [2, 7] | SMILES
1 | < 0.125 µg/mL | ≥ 50 µg/mL | 10 to 50 µg/mL (≈ 24.6 to 123 µM) | 1 to 5 µg/mL (≈ 2.46 to 12.3 µM) | 10 to 50 µg/mL (≈ 24.6 to 123 µM) | – | Cc1[nH]c(C)c(-c2ccc(CCc3cccc(C(F)(F)F)c3)nc2)c(=O)c1Cl [Example 44, 5-Chloro-2,6-dimethyl-6′-{2-[3-(trifluoromethyl)phenyl]ethyl}-3,3′-bipyridin-4(1H)-one]
2 | < 0.125 µg/mL | 10 to 50 µg/mL (≈ 25.2 to 126 µM) | < 1 µg/mL | < 1 µg/mL | < 1 µg/mL | 1 to 5 µg/mL (≈ 2.52 to 12.6 µM) | Cc1[nH]c(C)c(-c2ccc(-c3ccc(C(F)(F)F)cc3F)nc2)c(=O)c1Cl [Example 58, 5-chloro-6′-[2-fluoro-4-(trifluoromethyl)phenyl]-2,6-dimethyl-3,3′-bipyridin-4(1H)-one]
3 | < 0.125 µg/mL | 1 to 5 µg/mL (≈ 2.53 to 12.6 µM) | 1 to 5 µg/mL (≈ 2.53 to 12.6 µM) | < 1 µg/mL | < 1 µg/mL | 5 to 10 µg/mL (≈ 12.6 to 25.3 µM) | Cc1[nH]c(C)c(-c2cnc(-c3ccc(OC(F)(F)F)cc3)nc2)c(=O)c1Cl [Example 51, 3-Chloro-2,6-dimethyl-5-{2-[4-(trifluoromethyloxy)phenyl]-5-pyrimidinyl}-4(1H)-pyridinone]
4 | < 0.125 µg/mL | ≥ 50 µg/mL | 10 to 50 µg/mL | 1 to 5 µg/mL | ≥ 50 µg/mL | – | CCCCCCCc1ccc(-c2c(C)[nH]c(C)c(Cl)c2=O)cn1.Cl [Example 48, 5-Chloro-6′-(n-heptyl)-2,6-dimethyl-3,3′-bipyridin-4(1H)-one]
5 | < 0.125 µg/mL | ≥ 50 µg/mL | 1 to 5 µg/mL (≈ 2.52 to 12.6 µM) | < 1 µg/mL | < 1 µg/mL | 10 to 50 µg/mL (≈ 25.2 to 126 µM) | Cc1[nH]c(C)c(-c2ccc(-c3cc(C(F)(F)F)ccc3F)nc2)c(=O)c1Cl [Example 56, 5-chloro-6′-[2-fluoro-5-(trifluoromethyl)phenyl]-2,6-dimethyl-3,3′-bipyridin-4(1H)-one]
6 | < 0.125 µg/mL | 5 to 10 µg/mL (≈ 12.2 to 24.3 µM) | < 1 µg/mL | < 1 µg/mL | < 1 µg/mL | < 1 µg/mL | Cc1[nH]c(C)c(-c2ccc(Oc3ccc(OC(F)(F)F)cc3)nc2)c(=O)c1Cl [Example 49, 5-Chloro-2,6-dimethyl-6′-({4-[(trifluoromethyl)oxy]phenyl}oxy)-3,3′-bipyridin-4(1H)-one]

The remaining lines, values behind:

Row | SMILES | IC50 [1] | solubility at 24 h [2, 3] | solubility at 24 h [2, 4] | solubility at 24 h [2, 5] | solubility at 24 h [2, 6] | solubility at 24 h [2, 7]
7 | Cc1[nH]c(C)c(-c2ccc(-c3cccc(C(F)(F)F)c3)nc2)c(=O)c1Br [Example 17, 5-Bromo-2,6-dimethyl-6′-{3-[trifluoromethyl]phenyl}-3,3′-bipyridin-4(1H)-one] | < 0.125 µg/mL | ≥ 50 µg/mL | 1 to 5 µg/mL (≈ 2.36 to 11.8 µM) | < 1 µg/mL | < 1 µg/mL | –
8 | Cc1[nH]c(C)c(-c2ccc(-c3ccccc3Cl)nc2)c(=O)c1Br [Example 21, 5-Bromo-6′-(2-chlorophenyl)-2,6-dimethyl-3,3′-bipyridin-4(1H)-one] | < 0.125 µg/mL | ≥ 50 µg/mL | 5 to 10 µg/mL (≈ 12.8 to 25.7 µM) | 1 to 5 µg/mL (≈ 2.57 to 12.8 µM) | 5 to 10 µg/mL (≈ 12.8 to 25.7 µM) | –
9 | Cc1[nH]c(C)c(-c2ccc(-c3ccc(C(F)(F)F)cc3)nc2)c(=O)c1Br [Example 16, 5-Bromo-2,6-dimethyl-6′-{4-[trifluoromethyl]phenyl}-3,3′-bipyridin-4(1H)-one] | < 0.125 µg/mL | 10 to 50 µg/mL (≈ 23.6 to 118 µM) | < 1 µg/mL | < 1 µg/mL | < 1 µg/mL | –
10 | Cc1[nH]c(C)c(-c2ccc(-c3ccc(F)cc3)nc2)c(=O)c1Br [Example 22, 5-Bromo-6′-(4-fluorophenyl)-2,6-dimethyl-3,3′-bipyridin-4(1H)-one] | < 0.125 µg/mL | ≥ 50 µg/mL | 1 to 5 µg/mL (≈ 2.68 to 13.4 µM) | 1 to 5 µg/mL (≈ 2.68 to 13.4 µM) | 1 to 5 µg/mL (≈ 2.68 to 13.4 µM) | –
11 | Cc1[nH]c(C)c(-c2ccc(-c3ccc(F)cc3)nc2)c(=O)c1Cl [Example 36, 5-Chloro-6′-(4-fluorophenyl)-2,6-dimethyl-3,3′-bipyridin-4(1H)-one] | < 0.125 µg/mL | ≥ 50 µg/mL | 1 to 5 µg/mL (≈ 3.04 to 15.2 µM) | 1 to 5 µg/mL (≈ 3.04 to 15.2 µM) | 1 to 5 µg/mL (≈ 3.04 to 15.2 µM) | –
12 | Cc1[nH]c(C)c(-c2ccc(-c3ccccc3F)nc2)c(=O)c1Br [Example 23, 5-Bromo-6′-(2-fluorophenyl)-2,6-dimethyl-3,3′-bipyridin-4(1H)-one] | < 0.125 µg/mL | ≥ 50 µg/mL | 1 to 5 µg/mL (≈ 2.68 to 13.4 µM) | 1 to 5 µg/mL (≈ 2.68 to 13.4 µM) | 5 to 10 µg/mL (≈ 13.4 to 26.8 µM) | –
13 | Cc1[nH]c(C)c(-c2ccc(-c3ccccc3C(F)(F)F)nc2)c(=O)c1Br [Example 18, 5-Bromo-2,6-dimethyl-6′-{2-[trifluoromethyl]phenyl}-3,3′-bipyridin-4(1H)-one] | < 0.125 µg/mL | ≥ 50 µg/mL | 10 to 50 µg/mL (≈ 23.6 to 118 µM) | 10 to 50 µg/mL (≈ 23.6 to 118 µM) | 10 to 50 µg/mL (≈ 23.6 to 118 µM) | –
14 | Cc1[nH]c(C)c(-c2ccc(-c3cc(C(F)(F)F)cc(C(F)(F)F)c3)nc2)c(=O)c1Br [Example 25, 5-Bromo-2,6-dimethyl-6′-{3,5-bis[trifluoromethyl]phenyl}-3,3′-bipyridin-4(1H)-one] | < 0.125 µg/mL | 1 to 5 µg/mL (≈ 2.04 to 10.2 µM) | < 1 µg/mL | < 1 µg/mL | < 1 µg/mL | –

— US7579353B2, “Pyridinone derivatives against malaria” (Glaxo Group Limited, priority 2005, dated 2009)
